Assay results from patent US5959145A, “Fatty acid analog enzyme substrates” (priority 1993, dated 1999).

Tests used:
yeast NMT = molecular target: T1, yeast NMT (Saccharomyces cerevisiae, UniProt P14743); test: kinetic characterisation of fatty acid analogs as yeast NMT substrates; type: biochemical
T1 construct: 11,000-fold purified preparation of yeast NMT; endogenous in cells; host or cells: yeast (enzyme purified from yeast, 11,000-fold)
T1 sequence (P14743 1-455): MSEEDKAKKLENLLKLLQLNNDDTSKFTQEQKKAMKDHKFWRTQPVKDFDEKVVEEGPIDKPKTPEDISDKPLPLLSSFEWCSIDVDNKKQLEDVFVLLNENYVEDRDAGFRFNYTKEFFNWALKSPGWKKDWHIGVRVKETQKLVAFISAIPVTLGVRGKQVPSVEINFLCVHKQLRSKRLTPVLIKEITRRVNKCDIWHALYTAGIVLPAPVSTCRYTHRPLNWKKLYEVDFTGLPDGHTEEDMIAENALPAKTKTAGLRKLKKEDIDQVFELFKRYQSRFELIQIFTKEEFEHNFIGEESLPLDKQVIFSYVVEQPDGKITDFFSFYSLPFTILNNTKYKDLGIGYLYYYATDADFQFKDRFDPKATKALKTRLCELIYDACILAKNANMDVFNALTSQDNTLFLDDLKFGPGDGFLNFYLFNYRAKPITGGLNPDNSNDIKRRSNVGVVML
Excerpt: Similar results were obtained using an 11,000-fold purified preparation of yeast NMT [Towler et al., Proc. Natl. Acad. Sci. USA 84, 2708-2712 (1987)].
Other illustrative examples of the oxy- and thio-substituted fatty acid analog substrate compounds of the invention were synthesized in Examples 6 to 14 and tested in Example 15 as substrates for the yeast NMT.
(§1) For these Examples, each analog synthesized is characterized by ^1 H and ^13 C NMR as well as mass spectroscopy. The analogs are then characterized kinetically as NMT substrates. Briefly, fatty acid analogs are converted to their CoA esters with Pseudomonas CoA ligase and incubated with the iodinated peptide GNAAS[^125 I]YRR and a source of NMT. […] The radiolabelled peptide is then used at concentrations which will lead to 50% enzyme saturation (i.e., at its Km) for the determination of fatty acid analog kinetic characteristics. Representative analogs with sulfur or oxygen in the backbone of the fatty acid chain serve as good substrates for NMT in vitro and will compete for incorporation of ^3 H labelled myri-state into yeast proteins in vivo. In addition, these analogs differ markedly in hydrophobicity from myri-state as measured both by C18 reverse phase HPLC elution profiles and by 2-octanol/water partition coefficients. The analog CH3 O(CH2)11 COOH, for example, partitions into water 20 fold better than myristate. It is believed that these analogs will be incorporated into mammalian acylproteins in vivo and that their incorporation into these proteins will drastically alter protein processing or targeting. It is further believed that the incorporation of fatty acid analogs of both myristate and palmitate into ester linked and phosphatidyl inositol glycan linked acylproteins will also dramatically alter their properties. Since many viral proteins and oncogenes are acylated, these compounds represent a new class of potential antiviral and antineoplastic agents.

[1] = C18 reverse phase HPLC elution of fatty acyl peptides (hydrophobicity); type: physicochemical
Procedure: The fatty acid analog acyl-peptide eluted 7 minutes earlier than the corresponding myristoyl peptide. The free peptide elutes in the void volume (3-5minutes).
This difference was evident when the HPLC elution characteristics of fatty acyl peptides were examined. The elution time of a particular acyl-peptide depends strongly on the peptide sequence as well as on the acyl chain attached to that peptide. For example, the elution times of fatty acyl derivatives of GNAAAARR are (in minutes) decanoic acid, 9; dodecanoic acid, 18; myristic acid, 24; and palmitic acid, 30. Elution times for fatty acyl derivatives of GNAAS[^125 I]YRR are 23 and 28 minutes for C12 and C14 fatty acids, respectively (FIG. 2). […] Such a change could alter the biological activity of myristoyl proteins.
as §1

[2] = system: yeast myristoylprotein of Mr 20 kDa; test: competition for [3H]myristate incorporation into yeast acylprotein in vivo; type: cell-based; settings: Saccharomyces cerevisiae, 0.75 h, read-out: reduction in incorporation of [3H]myristate into yeast myristoylprotein of Mr 20 kDa
Procedure: (§2) Saccharomyces cerevisiae strain BJ405 [MATα, trpl, prbl, prcl, pep4-3; Hemmings et al., Proc. Natl. Acad. Sci. USA 78, 435-439 (1981)] (previously referred to as JR153) was grown to mid-log phase (OD660 nm =1.0-1.2) in YPD medium (1% yeast extract/2% Bactopeptone/2% Dextrose) at 30° C. in a rotary shaker water bath. Cells were pretreated with Cerulenin at 2 μg/ml for 15 minutes and then incubated for 20-45 minutes with unlabeled myristate, palmitate or fatty acid analog at 100 μM in the presence of either 5 μM [9,10-^3 H(N)]-myristate (22.4 Ci/mmol) or L-[^35 S]methionine (1106 Ci/mmol) at 30 μCi/ml of culture.
(§3) Cells were cooled on ice 5 minutes, pelleted at 10,000×g, then broken and extracted by the method of Towler et al., Proc. Natl. Acad. Sci. USA 83, 2812-2816 (1986). Total protein synthesis was assayed by trichloroacetic acid (TCA) precipitation. Proteins were separated by SDS-12% polyacrylamide gel electrophoresis, and [^3 H]fatty acid incorporation into cellular acyl-proteins was assayed by autoradiography followed by laser densitometry.

[3] = growth, toxicity and total protein synthesis in yeast cells; type: cell-based; settings: s. cerevisiae bj405, vs control cells not exposed to exogenous fatty acid, read-out: reduction in total protein synthesis ([35S]methionine into TCA precipitable protein)
Procedure: as §2, §3

Structure (SMILES): CCCCCCCCCCCCCC(=O)O [myristic acid, reference compound]
- Peptide Vm (yeast NMT; peptide GNAAS[125I]YRR varied, fatty acid analog at 15 μM, myristate control = 100%): 100%
- Acyl CoA Vm (yeast NMT; radiolabelled peptide at its Km, analog varied, myristate control = 100%): 100%
- Km (yeast NMT; radiolabelled peptide at its Km, analog varied, read-out: Acyl CoA Km): 600 nM
- Elution Time ([1]; C18 reverse phase HPLC, acyl derivative of GNAAS[125I]YRR, Table 2): 26 min
- elution time of fatty acyl derivative of GNAAAARR ([1]; reverse phase HPLC): 24 min
- elution time of fatty acyl derivative of GNAAS[125I]YRR ([1]; reverse phase HPLC, FIG. 2, text): 28 min
- inhibition at 100 µM [2]: 75 to 80%
- inhibition at 100 µM [3]: 10 to 15%
